Experimental findings from patent US8178570B2, “Tie-2 modulators and methods of use” (Exelixis, Inc., priority 2003, dated 2012) are described below.

In general, IC50 refers to the midpoint of a concentration-inhibition curve. A higher IC50 goes with weaker potency in that assay.

Chain of Tie-2 (Q02763 23-1124): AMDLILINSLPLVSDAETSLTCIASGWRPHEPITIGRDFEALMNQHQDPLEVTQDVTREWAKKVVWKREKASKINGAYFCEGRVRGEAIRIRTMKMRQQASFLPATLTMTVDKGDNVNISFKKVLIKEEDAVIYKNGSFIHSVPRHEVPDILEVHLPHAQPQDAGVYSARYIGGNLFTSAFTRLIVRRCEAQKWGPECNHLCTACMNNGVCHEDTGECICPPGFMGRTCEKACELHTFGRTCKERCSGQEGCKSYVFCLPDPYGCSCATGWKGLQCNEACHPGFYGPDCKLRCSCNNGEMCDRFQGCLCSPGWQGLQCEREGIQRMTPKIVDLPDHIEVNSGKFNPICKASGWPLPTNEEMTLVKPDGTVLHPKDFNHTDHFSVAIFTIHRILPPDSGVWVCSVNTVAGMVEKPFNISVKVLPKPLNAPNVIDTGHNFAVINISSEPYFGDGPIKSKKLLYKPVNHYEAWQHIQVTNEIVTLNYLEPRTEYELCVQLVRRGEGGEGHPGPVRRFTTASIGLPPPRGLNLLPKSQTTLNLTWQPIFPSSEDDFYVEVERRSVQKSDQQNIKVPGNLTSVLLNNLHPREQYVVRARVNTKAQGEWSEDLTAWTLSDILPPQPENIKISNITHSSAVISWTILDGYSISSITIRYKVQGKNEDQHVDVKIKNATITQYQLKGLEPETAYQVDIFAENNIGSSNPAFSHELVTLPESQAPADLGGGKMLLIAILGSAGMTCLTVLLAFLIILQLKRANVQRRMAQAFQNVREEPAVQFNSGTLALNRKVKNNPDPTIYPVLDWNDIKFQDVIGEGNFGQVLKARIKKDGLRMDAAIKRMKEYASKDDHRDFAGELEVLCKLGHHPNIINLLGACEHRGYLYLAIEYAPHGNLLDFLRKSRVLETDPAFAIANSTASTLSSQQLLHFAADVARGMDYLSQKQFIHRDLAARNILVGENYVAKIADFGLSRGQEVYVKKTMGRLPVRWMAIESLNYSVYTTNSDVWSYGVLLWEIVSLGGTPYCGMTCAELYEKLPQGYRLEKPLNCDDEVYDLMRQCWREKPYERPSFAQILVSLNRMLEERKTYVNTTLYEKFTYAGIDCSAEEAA

This assay addresses Tie-2 (Homo sapiens, UniProt Q02763). In words: Tie-2 tyrosine kinase activity: kinase-dependent ATP consumption (pEY substrate, luciferase/luciferin chemiluminescence) or 33P-ATP incorporation into substrate. It counts as biochemical. Particulars: Tie-2 (human enzyme) inhibition, Table 2, class symbols A-D. In a few lines:
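Tie-2 kinase activity is read either as ATP consumption with pEY substrate by luciferase/luciferin chemiluminescence, or as 33P incorporation from 33P-ATP into plate-adsorbed substrate by scintillation counting. IC50 values are binned as A <50 nM, B >50–1000 nM, C >1000–<10,000 nM, and D ≥10,000 nM.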
Regarding `O=C(Cc1cccc2ccccc12)N(CCn1nc(-c2cccc(F)c2)nc1-c1ccncc1)C1CCCC1` [Entry 57, N-cyclopentyl-N-{2-[3-(3-fluorophenyl)-5-pyridin-4-yl-1H-1,2,4-triazol-1-yl]ethyl}-2-naphthalen-1-ylacetamide], the IC50 lay in the range of 1000 to 10000 nM. Compound `O=C(Cc1cccc2ccccc12)N(CCn1nc(-c2ccncc2)nc1-c1cccc(Cl)c1)C1CCCC1` [Entry 58, N-{2-[5-(3-chlorophenyl)-3-pyridin-4-yl-1H-1,2,4-triazol-1-yl]ethyl}-N-cyclopentyl-2-naphthalen-1-ylacetamide] had an IC50 of less than 50 nM. Turning to `O=C(Cc1cccc2ccccc12)N(CCn1nc(-c2cccc(Cl)c2)nc1-c1ccncc1)C1CCCC1` [Entry 59, N-{2-[3-(3-chlorophenyl)-5-pyridin-4-yl-1H-1,2,4-triazol-1-yl]ethyl}-N-cyclopentyl-2-naphthalen-1-ylacetamide], the half-inhibitory concentration (IC50) was in the range of 1000 to 10000 nM. For `O=C(Cc1cccc2ccccc12)N(CCn1nc(-c2ccncc2)nc1C1CCNCC1)C1CCCC1` [Entry 60, N-cyclopentyl-2-naphthalen-1-yl-N-[2-(5-piperidin-4-yl-3-pyridin-4-yl-1H-1,2,4-triazol-1-yl)ethyl]acetamide], the half-inhibitory concentration (IC50) was less than 50 nM. `O=C(Cc1cccc2ccccc12)N(CCn1nc(-c2ccncc2)nc1-c1ccccc1Cl)C1CCCC1` [Entry 61, N-{2-[5-(2-chlorophenyl)-3-pyridin-4-yl-1H-1,2,4-triazol-1-yl]ethyl}-N-cyclopentyl-2-naphthalen-1-ylacetamide] had an IC50 of less than 50 nM. For the compound `O=C(Cc1cccc2ccccc12)N(CCn1nc(-c2ccccc2Cl)nc1-c1ccncc1)C1CCCC1` [Entry 62, N-{2-[3-(2-chlorophenyl)-5-pyridin-4-yl-1H-1,2,4-triazol-1-yl]ethyl}-N-cyclopentyl-2-naphthalen-1-ylacetamide], the IC50 is 1000 to 10000 nM.

`O=C(Cc1cccc2ccccc12)N(CCn1nc(-c2ccncc2)nc1-c1ccc2c(c1)OCO2)C1CCCC1` [Entry 63, N-{2-[5-(1,3-benzodioxol-5-yl)-3-pyridin-4-yl-1H-1,2,4-triazol-1-yl]ethyl}-N-cyclopentyl-2-naphthalen-1-ylacetamide]: the IC50 is less than 50 nM. To `O=C(Cc1cccc2ccccc12)N(CCn1nc(-c2ccc3c(c2)OCO3)nc1-c1ccncc1)C1CCCC1` [Entry 64, N-{2-[3-(1,3-benzodioxol-5-yl)-5-pyridin-4-yl-1H-1,2,4-triazol-1-yl]ethyl}-N-cyclopentyl-2-naphthalen-1-ylacetamide] belongs 1000 to 10000 nM; to `O=C(Cc1cccc2ccccc12)N(CCn1nc(-c2ccncc2)nc1-c1cccc(Br)c1)C1CCCC1` [Entry 65, N-{2-[5-(3-bromophenyl)-3-pyridin-4-yl-1H-1,2,4-triazol-1-yl]ethyl}-N-cyclopentyl-2-naphthalen-1-ylacetamide], less than 50 nM. Compound `O=C(Cc1cccc2ccccc12)N(CCn1nc(-c2cccc(Br)c2)nc1-c1ccncc1)C1CCCC1` [Entry 66, N-{2-[3-(3-bromophenyl)-5-pyridin-4-yl-1H-1,2,4-triazol-1-yl]ethyl}-N-cyclopentyl-2-naphthalen-1-ylacetamide] returned a half-inhibitory concentration (IC50) of no less than 10000 nM. The compound `O=C(Cc1cccc2ccccc12)N(CCn1nc(-c2ccncc2)nc1-c1ccc(Br)cc1)C1CCCC1` [Entry 67, N-{2-[5-(4-bromophenyl)-3-pyridin-4-yl-1H-1,2,4-triazol-1-yl]ethyl}-N-cyclopentyl-2-naphthalen-1-ylacetamide] yielded an IC50 of less than 50 nM. On to `O=C(Cc1cccc2ccccc12)N(CCn1nc(-c2ccc(Br)cc2)nc1-c1ccncc1)C1CCCC1` [Entry 68, N-{2-[3-(4-bromophenyl)-5-pyridin-4-yl-1H-1,2,4-triazol-1-yl]ethyl}-N-cyclopentyl-2-naphthalen-1-ylacetamide], for which the IC50 was less than 50 nM. In the case of `Cc1nc(-c2ccnnc2)nn1CCN(C(=O)Cc1cccc2ccccc12)C1CCCC1` [Entry 69, N-cyclopentyl-N-[2-(5-methyl-3-pyridazin-4-yl-1H-1,2,4-triazol-1-yl)ethyl]-2-naphthalen-1-ylacetamide] it was 50 to 1000 nM; in that of `Cc1ccc(-c2nc(-c3ccncc3)nn2CCN(C(=O)Cc2cccc3ccccc23)C2CCCC2)cc1` [Entry 70, N-cyclopentyl-N-{2-[5-(4-methylphenyl)-3-pyridin-4-yl-1H-1,2,4-triazol-1-yl]ethyl}-2-naphthalen-1-ylacetamide], less than 50 nM. The compound `Cc1ccc(-c2nc(-c3ccncc3)n(CCN(C(=O)Cc3cccc4ccccc34)C3CCCC3)n2)cc1` [Entry 71, N-cyclopentyl-N-{2-[3-(4-methylphenyl)-5-pyridin-4-yl-1H-1,2,4-triazol-1-yl]ethyl}-2-naphthalen-1-ylacetamide] came in with a 50% inhibitory concentration (IC50) of 1000 to 10000 nM.

`Cc1cccc(-c2nc(-c3ccncc3)nn2CCN(C(=O)Cc2cccc3ccccc23)C2CCCC2)c1` [Entry 72, N-cyclopentyl-N-{2-[5-(3-methylphenyl)-3-pyridin-4-yl-1H-1,2,4-triazol-1-yl]ethyl}-2-naphthalen-1-ylacetamide] returned a half-inhibitory concentration (IC50) of less than 50 nM. For the compound `Cc1cccc(-c2nc(-c3ccncc3)n(CCN(C(=O)Cc3cccc4ccccc34)C3CCCC3)n2)c1` [Entry 73, N-cyclopentyl-N-{2-[3-(3-methylphenyl)-5-pyridin-4-yl-1H-1,2,4-triazol-1-yl]ethyl}-2-naphthalen-1-ylacetamide], the IC50 lay within 1000 to 10000 nM.

Compound `O=C(Cc1cccc2ccccc12)N(CCn1nc(-c2ccncc2)nc1-c1ccc(Cl)cc1Cl)C1CCCC1` [Entry 74, N-cyclopentyl-N-{2-[5-(2,4-dichlorophenyl)-3-pyridin-4-yl-1H-1,2,4-triazol-1-yl]ethyl}-2-naphthalen-1-ylacetamide] had a 50% inhibitory concentration (IC50) of less than 50 nM. In turn, `O=C(Cc1cccc2ccccc12)N(CCn1nc(-c2ccc(Cl)cc2Cl)nc1-c1ccncc1)C1CCCC1` [Entry 75, N-cyclopentyl-N-{2-[3-(2,4-dichlorophenyl)-5-pyridin-4-yl-1H-1,2,4-triazol-1-yl]ethyl}-2-naphthalen-1-ylacetamide] displayed a half-inhibitory concentration (IC50) of 1000 to 10000 nM.

As to `O=C(Cc1cccc2ccccc12)N(CCn1nc(-c2ccncc2)nc1-c1ccc(C(F)(F)F)cc1)C1CCCC1` [Entry 76, N-cyclopentyl-2-naphthalen-1-yl-N-(2-{3-pyridin-4-yl-5-[4-(trifluoromethyl)phenyl]-1H-1,2,4-triazol-1-yl}ethyl)acetamide], the concentration for half-maximal inhibition (IC50) is less than 50 nM. As for `O=C(Cc1cccc2ccccc12)N(CCn1nc(-c2ccc(C(F)(F)F)cc2)nc1-c1ccncc1)C1CCCC1` [Entry 77, N-cyclopentyl-2-naphthalen-1-yl-N-(2-{5-pyridin-4-yl-3-[4-(trifluoromethyl)phenyl]-1H-1,2,4-triazol-1-yl}ethyl)acetamide], the half-inhibitory concentration (IC50) is no less than 10000 nM. Compound `COc1ccc(-c2nc(-c3ccncc3)nn2CCN(C(=O)Cc2cccc3ccccc23)C2CC2)cc1Cl` [Entry 78, N-(2-{5-[3-chloro-4-(methyloxy)phenyl]-3-pyridin-4-yl-1H-1,2,4-triazol-1-yl}ethyl)-N-cyclopropyl-2-naphthalen-1-ylacetamide] yielded a half-maximal inhibitory concentration (IC50) of less than 50 nM. Turning to `COc1ccc(-c2nc(-c3ccncc3)nn2CCN(C(=O)Cc2cccc3ccccc23)C(C)C)cc1Cl` [Entry 79, N-(2-{5-[3-chloro-4-(methyloxy)phenyl]-3-pyridin-4-yl-1H-1,2,4-triazol-1-yl}ethyl)-N-(1-methylethyl)-2-naphthalen-1-ylacetamide], the IC50 was no less than 10000 nM.

In the case of `CCc1nc(-c2ccncc2)nn1CCN(C(=O)Cc1cccc2ccccc12)C1CCCC1` [Entry 80, N-cyclopentyl-N-[2-(5-ethyl-3-pyridin-4-yl-1H-1,2,4-triazol-1-yl)ethyl]-2-naphthalen-1-ylacetamide], the concentration for half-maximal inhibition (IC50) is less than 50 nM.

As to `COc1ccc(-c2nc(-c3ccncc3)nn2CCN(C(=O)Cc2cccc3ccccc23)C2CCN(C)CC2)cc1Cl` [Entry 81, N-(2-{5-[3-chloro-4-(methyloxy)phenyl]-3-pyridin-4-yl-1H-1,2,4-triazol-1-yl}ethyl)-N-(1-methylpiperidin-4-yl)-2-naphthalen-1-ylacetamide], the concentration for half-maximal inhibition (IC50) is no less than 10000 nM. To `COc1ccc(-c2nc(-c3ccncc3)nn2CCN(C(=O)N[C@@H]2C[C@H]2c2ccccc2)C2CCCC2)cc1Cl` [Entry 82, N-(2-{5-[3-chloro-4-(methyloxy)phenyl]-3-pyridin-4-yl-1H-1,2,4-triazol-1-yl}ethyl)-N-cyclopentyl-N′-[(1R,2S)-2-phenylcyclopropyl]urea] belongs 1000 to 10000 nM; to `COc1ccc(-c2nc(-c3ccncc3)nn2CCN(C(=O)Nc2ccc(Cl)cc2Cl)C2CCCC2)cc1Cl` [Entry 83, N-(2-{5-[3-chloro-4-(methyloxy)phenyl]-3-pyridin-4-yl-1H-1,2,4-triazol-1-yl}ethyl)-N-cyclopentyl-N′-(2,4-dichlorophenyl)urea], no less than 10000 nM.

Consider `COc1ccc(-c2nc(-c3ccncc3)nn2CCN(C(=O)Nc2ccccc2OC)C2CCCC2)cc1Cl` [Entry 84, N-(2-{5-[3-chloro-4-(methyloxy)phenyl]-3-pyridin-4-yl-1H-1,2,4-triazol-1-yl}ethyl)-N-cyclopentyl-N′-[2-(methyloxy)phenyl]urea], for which the IC50 is no less than 10000 nM. In the case of `COc1ccc(NC(=O)N(CCn2nc(-c3ccncc3)nc2-c2ccc(OC)c(Cl)c2)C2CCCC2)c(OC)c1` [Entry 85, N′-[2,4-bis(methyloxy)phenyl]-N-(2-{5-[3-chloro-4-(methyloxy)phenyl]-3-pyridin-4-yl-1H-1,2,4-triazol-1-yl}ethyl)-N-cyclopentylurea] it was no less than 10000 nM; in that of `COc1ccc(-c2nc(-c3ccncc3)nn2CCN(C(=O)Nc2ccccc2C)C2CCCC2)cc1Cl` [Entry 86, N-(2-{5-[3-chloro-4-(methyloxy)phenyl]-3-pyridin-4-yl-1H-1,2,4-triazol-1-yl}ethyl)-N-cyclopentyl-N′-(2-methylphenyl)urea], 1000 to 10000 nM.
